Test results taken from article PMC9656482, “In Vitro and In Vivo Biological Activity of Ruthenium 1,10-Phenanthroline-5,6-dione Arene Complexes” (International Journal of Molecular Sciences, 2022).

What was measured:
[1] = system: doxorubicin-resistant HCT116 (HCT116-Dox); conditions: read-out: Relative IC50, HCT116-Dox; 48 h incubation, MTS
Procedure: (§1) The cytotoxic potential of the complexes was evaluated by assessing their viability using the 3-(4,5-dimethylthiazol-2-yl)-5-(3-carboxymethoxyphenyl)-2-(4-sulfophenyl)-2H tetrazolium, inner salt (MTS) colorimetric assay in three tumor cell lines—ovarian carcinoma, A2780, colorectal carcinoma, HCT116, and colorectal carcinoma resistant to doxorubicin, HCT116-Dox and in normal human primary dermal fibroblasts (Figure 1 and Figure S7).
(§2) Normal dermal human fibroblasts, colorectal carcinoma cell line HCT116 and ovarian carcinoma cell line A2780 were acquired from ATCC (Manassas, VA, USA). HCT116 cell lines resistant to doxorubicin (HCT116-Dox) were derived from the HCT116 cell line, as previously described. Fibroblasts and HCT116 cells were cultured in Dulbecco’s modified Eagle medium (DMEM, Thermo Fisher Scientific) and A2780 cell line was cultured on Roswell Park Memorial institute 1640 (RPMI-1640, Thermo Fisher Scientific). Both media were supplemented with 10% (v/v) fetal bovine serum (FBS, Thermo Fisher Scientific) and a mixture of 100 U/mL penicillin and […] streptomycin. The supplemented media are referred to from this point on as DMEM or RPMI for simplicity.

[2] = system: normal human dermal fibroblasts; conditions: read-out: Relative IC50, Fibroblasts; 48 h incubation, MTS
Procedure: as §1, §2

[3] = system: A2780 ovarian carcinoma cell line; experiment: MTS antiproliferative assay, A2780; format: cell-based, human; conditions: 48 h incubation, MTS; read-out: Relative IC50, A2780
Procedure: (§3) Normal dermal human fibroblasts, colorectal carcinoma cell line HCT116 and ovarian carcinoma cell line A2780 were acquired from ATCC (Manassas, VA, USA). […] Fibroblasts and HCT116 cells were cultured in Dulbecco’s modified Eagle medium (DMEM, Thermo Fisher Scientific) and A2780 cell line was cultured on Roswell Park Memorial institute 1640 (RPMI-1640, Thermo Fisher Scientific). Both media were supplemented with 10% (v/v) fetal bovine serum (FBS, Thermo Fisher Scientific) and a mixture of 100 U/mL penicillin and 100 mg/mL streptomycin. The supplemented media are referred to from this point on as DMEM or RPMI for simplicity. […] All experiments underwent at 37 °C, 5% (v/v) CO2 and 99% (v/v) humidity in the dark.
(§4) Cells were seeded in a 96-well plate in a density of 7500 cells/well, and after 24 h was submitted to a concentration range between 0.1–50 µM of complexes JHOR10 and JHOR11. DMSO with a 0.1% (v/v) concentration was used as vector control and cisplatin was used as positive control in all replicates. After 48 h incubation, cellular viability was inferred with the Cell Titer 96® Aqueous One solution cell proliferation assay (Promega, Madison, WI, USA) according to the manufacturer’s instructions and procedures previously described [18, 40]. The absorbance of the produced Formazan was quantified with a Tecan microplate reader, Infinite M200 (Tecan, Mannedorf, Switzerland) and the analysis of the dose–response curves to determine the relative IC50 was performed with GraphPad Prism 8.2.1 software (GraphPad Software, La Jolla, CA, USA).

[4] = Stability in DMSO-d6-D2O solution by 1H NMR; format: physicochemical; conditions: DMSO-d6-D2O 3:7 (v/v), 110 mM chloride
Procedure: To evaluate the stability of complexes in a cell culture medium, powdered complexes were first solubilized in DMSO and then immediately in DMEM, in order to guarantee that no more than 0.1% (v/v) DMSO was present in the medium. […] In addition, the stability of the complexes in solution was investigated by ^1H NMR spectroscopy. The ruthenium complexes were dissolved in DMSO-d6-D2O, in a 3:7 ratio (v/v) with a 110 mM chloride concentration, and the ^1H NMR spectra was recorded immediately and after 48 h. […] This observation is in agreement with the M–Cl aquation processes described for several metallic compounds, such as cisplatin [23]. After 48 h, the ^1H NMR spectrum of JHOR10 was unchanged.
The stability of complexes was evaluated in DMEM (Dulbecco’s modified Eagle’s medium). Powdered complexes JHOR10 and JHOR11 were solubilized in DMSO and then immediately diluted in DMEM without phenol red (Thermo Fisher Scientific, Waltham, MA, USA) to a final concentration of 100 µM, assuring that the final concentration of DMSO was not higher than 0.1% (v/v). The UV-visible spectrum was measured after an incubation at 37 °C for 24 or 48 h (DMEM) in a wavelength range between 260 and 800 nm, using a quartz cuvette with 1 cm path length. A total of 2 mg of each compound was dissolved in DMSOd6-D2O 3:7 (v/v) 110 mM chloride concentration (NaCl), and the ^1H NMR were recorded at 0 h and 48 h on a Bruker Avance III 400 MHz.

zebrafish embryos = experiment: In vivo toxicity assessment using zebrafish embryos; conditions: zebrafish embryos exposed from 72 hpf, 96 h
Procedure: The toxicity of the JHOR10 and JHOR11 compounds was assayed in zebrafish embryos. There was a NOEC (No Observed Effect Concentration) in the case of JHOR11 of 80 µM (Table 2). The NOEC is the concentration used for the xenotransplantation experiments in order not to affect the normal development of the embryos and being able, in parallel, to assay the effect of the compound over the injected cells. Apart from that, the mortality assayed in the toxicity assays supports the concentration obtained in the NOEC, with a low mortality of the embryos when they are incubated with JHOR11 (Figure 13 and Figure 14).
Wild-type zebrafish were housed in 30 L tanks within a water recirculation system under controlled physicochemical conditions: pH 7–7.5, temperature 26 ± 2 °C, conductivity 600 µS/cm and light/dark photoperiod of 14/10 h. The adult fish were fed Gemma Micro 300 (Skretting) twice a day. Fertilized eggs were collected after natural spawning and stored in Petri dishes for 48 h until being injected, or 72 h until being exposed to different concentrations of ruthenium compounds.
At 72 h post-fertilization (hpf), the embryos were exposed to increasing concentrations of two ruthenium compounds to determine toxicological estimates: LC50 with no observed effect concentration (NOEC) and lowest observed effect concentration (LOEC). The acute toxicity assessment of the compounds was performed following the standards of the OECD Test Guideline Program.
The embryos were individually transferred to 96-well plates containing 100 µL of each desired concentration. The plates were then placed in an incubator with a temperature of 26 °C and a photoperiod of 14 h of light and 10 h of darkness. The duration of the experiment was 96 h, and observations were made every 24 h recording the four lethal effects indicated by the OECD: embryo coagulation, absence of somite formation, absence of separation of the yolk tail and absence of heartbeat. All compounds were dissolved with dimethylsulfoxide (DMSO) with a final concentration of 1%. In each test, seven concentrations were analyzed for each compound, these being: JHOR10 (10, 20, 30, 40, 50, 55, 60 µM) and JHOR11 (50, 80, 100, 140, 200, 300, 400 µM).
For the evaluation of toxicity, the mortality data were analyzed by probit analysis with the ToxRat software (ToxRat Solutions. 2003. ToxRat®. Software for the statistical analysis of biotests. Alsdorf, Germany).

[5] = system: HCT116 colorectal carcinoma cell line; experiment: MTS antiproliferative assay, HCT116; format: cell-based, human; conditions: 48 h incubation, MTS; read-out: Relative IC50, HCT116
Procedure: as §3, §4

A2780 cells = experiment: Cell cycle analysis (PI staining); format: cell-based, human; conditions: A2780 synchronized with thymidine; IC50 of JHOR11 or 0.1 µM doxorubicin; 5-32 h, relative to DMSO
Procedure: To understand if the complex also presents a cytostatic effect, the cell cycle of A2780 cells was analyzed by DNA staining with PI, after double synchronization with thymidine at the S phase.
The cell cycle analysis was performed by DNA staining with PI according to procedures previously described with few modifications. A2780 cells were seeded in 6-well plates in a cell density of 4 × 10^5 cells/well and the cell cycle was synchronized in the S-phase by double blocking with 2 mM thymidine. […] After 5 h, 9 h, 24 h or 32 h, cells were detached, fixed with 80% (v/v) ethanol, incubated with 50 mg/mL RNase A (NZYtech, Lisbon, Portugal) and stained with […] PI (Thermo Fisher Scientific). The fluorescence of each sample was analyzed in an Attune acoustic focusing cytometer and respective software (Thermo Fisher Scientific).

SMILES | IC50 [1] [µM] | IC50 [2] [µM] | IC50 [3] [µM] | stability in solution by 1H NMR after 48 h ([4]; 48 h) | stability in solution by 1H NMR at t = 0 h ([4]; t = 0 h) | LC50 (zebrafish embryos) [µM] | LOEC (Lowest Observed Effect Concentration) (zebrafish embryos) [µM] | NOEC (No Observed Effect Concentration) (zebrafish embryos) [µM] | IC50 [5] [µM] | cell cycle effect (A2780 cells)
Cc1ccc(C(C)C)cc1.O=C1C(=O)c2cccnc2-c2ncccc21.O=S(=O)([O-])C(F)(F)F.[Cl][Ru+] [JHOR10, [Ru{p-C6H4(Me)(iPr)}{(Dione)Cl][CF3SO3]] | > 50 | > 50 | 5.3 ± 0.3 | unchanged | new sets of resonances appeared | 29.8 | 20.00 | 10.00 | 25.7 ± 1.3 | –
N.N.[Cl][Pt][Cl] [Cisplatin, reference compound] | – | – | 1.9 ± 0.2 | – | – | – | – | – | 15.6 ± 5.3 | –
COc1cccc2c1C(=O)c1c(O)c3c(c(O)c1C2=O)C[C@@](O)(C(=O)CO)C[C@@H]3O[C@H]1C[C@H](N)[C@H](O)[C@H](C)O1 [doxorubicin, reference compound] | – | – | – | – | – | – | – | – | – | cell cycle arrest at G2/M phase
